Measured values published in US20170252367A1, “PHARMACEUTICAL COMPOSITIONS AND METHODS RELATING TO INHIBITING FIBROUS ADHESIONS OR INFLAMMATORY DISEASE USING LOW SULPHATE FUCANS” (ARC Medical Devices, Inc., priority 2004, published 2017).
Structures can show the parent of a compound that is named as a salt.

Test system: fibrous adhesions between the caecum and the sidewall
Assay: Rat caecal-sidewall surgical adhesion model, drug loaded hyaluronic acid film (Example 1)
Format: in vivo
Conditions: for inhibition of all adhesions (zero on the Total Adhesion Value scale) in at least one test animal: agent administered to the cecal-sidewall site
From the text: In one embodiment, the efficacy of the given drug or drug combination can be assessed as a reduction of the average Total Adhesion Value (strength×area; “TAV”) of the drug or combination versus a given standard, for example a drug-loaded sodium hyaluronate film versus a sham or a sodium hyaluronate film alone in the rat cecal-sidewall model for surgical fibrous adhesions.
The rat caecal sidewall model of surgical adhesions was used to investigate the effect of administration of each agent discussed herein (hereafter referred to as the drug) for the prevention of post-surgical type of fibrous adhesions. In this model, rats were divided into groups of 4. After surgical trauma, the rats were either untreated, treated with crosslinked hyaluronic acid (HA) film, or crosslinked HA film containing drug at the following concentrations in the film (% w/w):
Animal Studies. […] Only animals that appeared grossly normal (i.e., showing a clean unruffled coat, bright clear eyes and an active posture) were used in the study. Animals were randomly assigned to treatment groups, weighed and anesthetized with isoflurane gas. The abdomen was shaved and cleaned with a skin-antibacterial cleanser (Steri-Stat 2%) and wiped with a chlorohexane soaked gauze. A nick was made in one of the tail veins to elicit a small amount of blood (<100 mL). A white blood cell count was performed on this blood sample. An antibiotic (40,000 IU/kg of depopenicillin) was injected into the right thigh and an analgesic (0.01 mg/kg of buprenorphine) was injected into the left thigh of each rat. A 4 cm incision was made in the skin beginning approximately 2 cm caudal to the linea alba while the muscle was tended with forceps. […] Scraping was in the opposite direction to which the blade was pointing. The scraped caecum was wrapped in saline-soaked gauze. Doynes were used to separate the peritoneal wall from the skin, and the peritoneal wall was inverted using the doynes to expose the inside of the wall. A rectangular injury roughly 1.2 cm by 1.8 cm was made by shallow incisions to the peritoneal wall. The top membrane and a layer of muscle tissue was removed using forceps. The caecum was stitched to the four corners of the rectangle using a 5-0 suture, and without tying off the top two stitches. A piece of film was placed onto the abraded rectangle and then the top two stitches were tied firmly. In the case of the untreated control group, no film was placed over the abraded site. The exposed organs were replaced in the abdomen in such a way as to prevent torsional stress on the intestines. […] A collar was placed around the neck of the animal to prevent it from interfering with the stitches. The rat was placed in a clean cage and warmed with a heating lamp until consciousness was regained.

SMILES: CN(Cc1cnc2nc(N)nc(N)c2n1)c1ccc(C(=O)N[C@@H](CCC(=O)O)C(=O)O)cc1 [methotrexate, Methotrexate]
- inhibition of all adhesions (zero on the Total Adhesion Value scale) in at least one test animal: completely inhibited fibrous adhesions

SMILES: N.N.[Cl][Pt][Cl] [cisplatin, Cisplatin]
- reduction in adhesion score versus control, one-tailed Student's t-test (p<0.05) (2% w/w in HA film): statistically significant
- inhibition of all adhesions (zero on the Total Adhesion Value scale) in at least one test animal: completely inhibited fibrous adhesions

SMILES: CC(=O)O[C@@]12CO[C@@H]1C[C@H](O)[C@@]1(C)C(=O)[C@H](O)C3=C(C)[C@@H](OC(=O)[C@H](O)[C@@H](NC(=O)OC(C)(C)C)c4ccccc4)C[C@@](O)([C@@H](OC(=O)c4ccccc4)[C@H]21)C3(C)C [docetaxel, Docetaxel]
- inhibition of all adhesions (zero on the Total Adhesion Value scale) in at least one test animal: completely inhibited fibrous adhesions

SMILES: CC[C@H]1OC(=O)[C@H](C)[C@@H](O[C@H]2C[C@@](C)(OC)[C@@H](O)[C@H](C)O2)[C@H](C)[C@@H](O[C@@H]2O[C@H](C)C[C@H](N(C)C)[C@H]2O)[C@](C)(O)C[C@@H](C)C(=O)[C@H](C)[C@@H](O)[C@]1(C)O [erythromycin, Erythromycin]
- reduction in adhesion score versus control, one-tailed Student's t-test (p<0.05) (5% w/w in HA film): statistically significant

SMILES: CCOC(=O)[C@H](CCc1ccccc1)N[C@@H](C)C(=O)N1CCC[C@H]1C(=O)O [enalapril maleate, Enalapril Maleate]
- reduction in adhesion score versus control, one-tailed Student's t-test (p<0.05) (5% w/w in HA film): statistically significant
